The text below walks through data of patent publication US20250092039A1, “GLUTARIMIDE-CONTAINING PAN-KRAS-MUTANT DEGRADER COMPOUNDS AND USES THEREOF” (Tiger Biotherapeutics Inc., priority 2022, published 2025).

As usually defined, the pIC50 is −log10 of the IC50, conventionally taken in molar units. A high value points to a small IC50. By DC50 is commonly meant the concentration at which degradation of the target reaches its halfway point. High values mean degradation only at high concentration, low ones degradation at low concentration. One may read the GI50 as the concentration at which growth is held to half of that of the control.

Experiment [1] has as its target KRAS-G12V/RAF1 (Homo sapiens (Human), UniProt P01116, G12V). Put plainly: KRAS/RAF1 binding inhibition assay (AlphaScreen). The essentials: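 Binding of GppNHp-loaded KRAS G12V to the RAF1 RBD was measured by AlphaScreen with test compound present in 2% DMSO (final), 60 min incubation at 4° C. Signals were converted to % inhibition versus DMSO, and IC50 was obtained by variable-slope nonlinear regression.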
Background: Bead proximity is the source of the signal in Alpha formats.

The target in experiment [2] is KRAS G12V (Homo sapiens (Human), UniProt P01116, G12V). Put plainly: KRAS G12V degradation in SW620 cells (Western blot, DC50). In kind it is cell-based. The settings on record: 24 hours. The essentials:
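SW620 cells (homozygous KRAS G12V) were treated with compound for 24 hours at 37° C. KRAS in lysates was measured by Western blot with fluorescent secondary antibodies and expressed relative to DMSO vehicle (100%). DC50 came from a four-parameter variable-slope dose-response fit.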
On the technique in general: In western blotting, separated proteins are transferred to a membrane and probed.

For experiment [3], the system named is SW620 cells. Put plainly: 3D cell growth inhibition of SW620 cells carrying endogenous KRAS G12V mutation (CellTiter-Glo 3D, GI50). Type of experiment: cell-based. Particulars: Homo sapiens, SW-620, 144 h, read-out: SW620 3D cell growth GI50. The essentials: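 SW620 cells (endogenous KRAS G12V) grown in 3D were dosed next day with compound from DMSO stocks at various concentrations, then incubated 6 days at 37° C.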
For orientation: In ATP-based viability assays light output follows the ATP content of the culture.

pIC50: −log10 of the molar value. Where two headings read alike, the source gives them in different places.

Sequence of KRAS G12V (P01116-2 other isoform, or with tags, fused parts or gaps G12V): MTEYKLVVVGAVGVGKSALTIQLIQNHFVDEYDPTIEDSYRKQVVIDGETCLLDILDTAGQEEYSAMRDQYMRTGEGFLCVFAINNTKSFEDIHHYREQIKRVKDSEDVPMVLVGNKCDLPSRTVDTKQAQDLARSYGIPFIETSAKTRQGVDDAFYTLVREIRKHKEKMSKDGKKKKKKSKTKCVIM
Sequence of KRAS-G12V/RAF1 (P01116-2 other isoform, or with tags, fused parts or gaps G12V): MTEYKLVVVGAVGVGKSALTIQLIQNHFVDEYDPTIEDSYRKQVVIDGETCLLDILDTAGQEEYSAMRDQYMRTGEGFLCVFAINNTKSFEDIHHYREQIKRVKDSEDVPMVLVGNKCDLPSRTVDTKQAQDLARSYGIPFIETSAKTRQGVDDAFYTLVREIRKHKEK

The molecule `CCc1c(F)ccc2cc(O)cc(-c3ncc4c(N5CCC[C@@H](O)CC5)nc(OCC5(CN6CCC(CN7CCN(c8ccc9c(c8)CN([C@H]8CCC(=O)NC8=O)C9=O)CC7)CC6)CC5)nc4c3F)c12` [Compound 117, (S)-3-(5-(4-((1-((1-(((7-(8-ethyl-7-fluoro-3-hydroxynaphthalen-1-yl)-8-fluoro-4-((R)-4-hydroxyazepan-1-yl)pyrido[4,3-d]pyrimidin-2-yl)oxy)methyl)cyclopropyl)methyl)piperidin-4-yl)methyl)piperazin-1-yl)-1-oxoisoindolin-2-yl)piperidine-2,6-dione] showed a pIC50 in experiment [1] of under 6.70. In experiment [2], this molecule returned a DC50 of 1 to 10 nM. In addition, the GI50 in experiment [3] (SW620 cells, 6 days) is over 100 nM.
For `C#Cc1c(F)ccc2cc(N)cc(-c3ncc4c(N5CCC[C@@](C)(O)C5)nc(OCC5(CN6CCC(CN7CCN(c8ccc9c(c8)CN([C@H]8CCC(=O)NC8=O)C9=O)CC7)CC6)CC5)nc4c3F)c12` [Compound 118, (S)-3-(5-(4-((1-((1-(((7-(3-amino-8-ethynyl-7-fluoronaphthalen-1-yl)-8-fluoro-4-((R)-3-hydroxy-3-methylpiperidin-1-yl)pyrido[4,3-d]pyrimidin-2-yl)oxy)methyl)cyclopropyl)methyl)piperidin-4-yl)methyl)piperazin-1-yl)-1-oxoisoindolin-2-yl)piperidine-2,6-dione], in that order: under 6.70, over 100 nM and over 100 nM.
For `C#Cc1c(F)ccc2cc(N)cc(-c3ncc4c(N5CCC[C@@](C)(O)C5)nc(OCC5(CN6CCC7(CC6)CC(CN6CCN(c8ccc9c(c8)CN([C@H]8CCC(=O)NC8=O)C9=O)CC6)C7)CC5)nc4c3F)c12` [Compound 119, (S)-3-(5-(4-((7-((1-(((7-(3-amino-8-ethynyl-7-fluoronaphthalen-1-yl)-8-fluoro-4-((R)-3-hydroxy-3-methylpiperidin-1-yl)pyrido[4,3-d]pyrimidin-2-yl)oxy)methyl)cyclopropyl)methyl)-7-azaspiro[3.5]nonan-2-yl)methyl)piperazin-1-yl)-1-oxoisoindolin-2-yl)piperidine-2,6-dione], in that order: under 6.70, over 100 nM and over 100 nM.
Consider `C[C@@]1(O)CCCN(c2nc(OCC3(CN4CCC(CN5CCN(c6ccc7c(c6)CN([C@H]6CCC(=O)NC6=O)C7=O)CC5)CC4)CC3)nc3c(F)c(-c4cc(O)cc5cccc(Cl)c45)ncc23)C1` [Compound 123, (S)-3-(5-(4-((1-((1-(((7-(8-chloro-3-hydroxynaphthalen-1-yl)-8-fluoro-4-((R)-3-hydroxy-3-methylpiperidin-1-yl)pyrido[4,3-d]pyrimidin-2-yl)oxy)methyl)cyclopropyl)methyl)piperidin-4-yl)methyl)piperazin-1-yl)-1-oxoisoindolin-2-yl)piperidine-2,6-dione], for which, in experiment [1], the pIC50 was 6.70 to 7.70. Moreover, in experiment [2], the DC50 lay within 1 to 10 nM. Also, the GI50 in experiment [3] (SW620 cells, 6 days) lay within 10 to 100 nM.
For `CCc1c(F)ccc2cc(O)cc(-c3ncc4c(N5CCOCC6(CCO6)C5)nc(OCC5(CN6CCC7(CC6)CC(CN6CCN(c8ccc9c(c8)CN([C@H]8CCC(=O)NC8=O)C9=O)CC6)C7)CC5)nc4c3F)c12` (stereo partly drawn) [Compound 124, (3S)-3-(5-(4-((7-((1-(((7-(8-ethyl-7-fluoro-3-hydroxynaphthalen-1-yl)-8-fluoro-4-(1,6-dioxa-9-azaspiro[3.6]decan-9-yl)pyrido[4,3-d]pyrimidin-2-yl)oxy)methyl)cyclopropyl)methyl)-7-azaspiro[3.5]nonan-2-yl)methyl)piperazin-1-yl)-1-oxoisoindolin-2-yl)piperidine-2,6-dione] the same measures were 6.70 to 7.70, 1 to 10 nM and under 10 nM.
For `CCc1c(F)ccc2cc(O)cc(-c3ncc4c(N5CCC[C@@](C)(O)C5)nc(OCC5(CN6CC7(CCC(CN8CCN(c9ccc%10c(c9)CN([C@H]9CCC(=O)NC9=O)C%10=O)CC8)CC7)C6)CC5)nc4c3F)c12` [Compound 126, (3S)-3-[5-[4-[[2-[[1-[[7-(8-ethyl-7-fluoro-3-hydroxy-1-naphthyl)-8-fluoro-4-[(3R)-3-hydroxy-3-methyl-1-piperidyl]pyrido[4,3-d]pyrimidin-2-yl]oxymethyl]cyclopropyl]methyl]-2-azaspiro[3.5]nonan-7-yl]methyl]piperazin-1-yl]-1-oxo-isoindolin-2-yl]piperidine-2,6-dione], in that order: 6.70 to 7.70, 1 to 10 nM and under 10 nM.
For `CCc1cccc2cc(O)cc(-c3ncc4c(N5CCNC(=O)CC5)nc(OCC5(CN6CCC7(CC6)CC(CN6CCN(c8ccc9c(c8)CN([C@H]8CCC(=O)NC8=O)C9=O)CC6)C7)CC5)nc4c3F)c12` [Compound 128, (S)-3-(5-(4-((7-((1-(((7-(8-ethyl-3-hydroxynaphthalen-1-yl)-8-fluoro-4-(5-oxo-1,4-diazepan-1-yl)pyrido[4,3-d]pyrimidin-2-yl)oxy)methyl)cyclopropyl)methyl)-7-azaspiro[3.5]nonan-2-yl)methyl)piperazin-1-yl)-1-oxoisoindolin-2-yl)piperidine-2,6-dione] the same measures were under 6.70, over 100 nM and over 100 nM.
In turn, `C[C@@]1(O)CCCN(c2nc(OCC3(CN4CCC5(CC4)CC(CN4CCN(c6ccc7c(c6)CN([C@H]6CCC(=O)NC6=O)C7=O)CC4)C5)CC3)nc3c(F)c(-c4cc(O)cc5cccc(Cl)c45)ncc23)C1` [Compound 129, (S)-3-(5-(4-((7-((1-(((7-(8-chloro-3-hydroxynaphthalen-1-yl)-8-fluoro-4-((R)-3-hydroxy-3-methylpiperidin-1-yl)pyrido[4,3-d]pyrimidin-2-yl)oxy)methyl)cyclopropyl)methyl)-7-azaspiro[3.5]nonan-2-yl)methyl)piperazin-1-yl)-1-oxoisoindolin-2-yl)piperidine-2,6-dione] had a negative-log IC50 (pIC50) in experiment [1] of 6.70 to 7.70. Further, the half-maximal degradation concentration (DC50) in experiment [2] was under 1 nM. In experiment [3] (SW620 cells, 6 days), the concentration for 50% growth inhibition (GI50) lay within 10 to 100 nM.
For `CCc1c(F)ccc2cc(O)cc(-c3ncc4c(N5CCC[C@@](C)(O)C5)nc(OCC5(CN6CC(N7CCN(c8ccc9c(c8)CN([C@H]8CCC(=O)NC8=O)C9=O)CC7)C6)CC5)nc4c3F)c12` [Compound 130, (S)-3-(5-(4-(1-((1-(((7-(8-ethyl-7-fluoro-3-hydroxynaphthalen-1-yl)-8-fluoro-4-((R)-3-hydroxy-3-methylpiperidin-1-yl)pyrido[4,3-d]pyrimidin-2-yl)oxy)methyl)cyclopropyl)methyl)azetidin-3-yl)piperazin-1-yl)-1-oxoisoindolin-2-yl)piperidine-2,6-dione], in that order: 6.70 to 7.70, 1 to 10 nM and under 10 nM.
Molecule `CCc1c(F)ccc2cc(O)cc(-c3ncc4c(N5CCC[C@@](C)(O)C5)nc(OCC5(CN6CCC7(CC6)CN(CC6CCN(c8ccc9c(c8)CN(C8CCC(=O)NC8=O)C9=O)CC6)C7)CC5)nc4c3F)c12` (stereo partly drawn) [Compound 131, 3-(5-(4-((7-((1-(((7-(8-ethyl-7-fluoro-3-hydroxynaphthalen-1-yl)-8-fluoro-4-((R)-3-hydroxy-3-methylpiperidin-1-yl)pyrido[4,3-d]pyrimidin-2-yl)oxy)methyl)cyclopropyl)methyl)-2,7-diazaspiro[3.5]nonan-2-yl)methyl)piperidin-1-yl)-1-oxoisoindolin-2-yl)piperidine-2,6-dione] had a pIC50 in experiment [1] of over 7.70. Further, the half-maximal degradation concentration (DC50) in experiment [2] was under 1 nM. Further, in experiment [3], the 50% growth inhibitory concentration (GI50) is under 10 nM.
`CCc1c(F)ccc2cc(O)cc(-c3ncc4c(N5CCC[C@@](C)(O)C5)nc(OCC5(CN6CCN(CC7CN(c8ccc9c(c8)CN(C8CCC(=O)NC8=O)C9=O)C7)CC6)CC5)nc4c3F)c12` (stereo partly drawn) [Compound 133, 3-[5-[3-[[4-[[1-[[7-(8-ethyl-7-fluoro-3-hydroxy-1-naphthyl)-8-fluoro-4-[(3R)-3-hydroxy-3-methyl-1-piperidyl]pyrido[4,3-d]pyrimidin-2-yl]oxymethyl]cyclopropyl]methyl]piperazin-1-yl]methyl]azetidin-1-yl]-1-oxo-isoindolin-2-yl]piperidine-2,6-dione]: the pIC50 in experiment [1] is 6.70 to 7.70. The molecule also displayed a DC50 in experiment [2] of under 1 nM. In experiment [3], the concentration for 50% growth inhibition (GI50) is under 10 nM.
The molecule `C[C@@]1(O)CCCN(c2nc(OCC3(CN4CCC5(CC4)CC(CN4CCN(c6ccc7c(c6)CN([C@H]6CCC(=O)NC6=O)C7=O)CC4)C5)CC3)nc3c(F)c(-c4cc(N)cc(Cl)c4C(F)(F)F)ncc23)C1` [Compound 135, (S)-3-(5-(4-((7-((1-(((7-(5-amino-3-chloro-2-(trifluoromethyl)phenyl)-8-fluoro-4-((R)-3-hydroxy-3-methylpiperidin-1-yl)pyrido[4,3-d]pyrimidin-2-yl)oxy)methyl)cyclopropyl)methyl)-7-azaspiro[3.5]nonan-2-yl)methyl)piperazin-1-yl)-1-oxoisoindolin-2-yl)piperidine-2,6-dione] had a pIC50 in experiment [1] of 6.70 to 7.70. In experiment [2], this molecule returned a DC50 of 1 to 10 nM. For the same molecule, the concentration for 50% growth inhibition (GI50) in experiment [3] (SW620 cells, 6 days) was under 10 nM.
In turn, `CCc1c(F)ccc2cc(O)cc(-c3ncc4c(N5CCC[C@@](C)(O)C5)nc(OCC5(CN6CC7(CCC(N8CCN(c9ccc%10c(c9)CN([C@H]9CCC(=O)NC9=O)C%10=O)CC8)CC7)C6)CC5)nc4c3F)c12` [Compound 136, (S)-3-(5-(4-(2-((1-(((7-(8-ethyl-7-fluoro-3-hydroxynaphthalen-1-yl)-8-fluoro-4-((R)-3-hydroxy-3-methylpiperidin-1-yl)pyrido[4,3-d]pyrimidin-2-yl)oxy)methyl)cyclopropyl)methyl)-2-azaspiro[3.5]nonan-7-yl)piperazin-1-yl)-1-oxoisoindolin-2-yl)piperidine-2,6-dione] gave a pIC50 in experiment [1] of over 7.70. In addition, the half-maximal degradation concentration (DC50) in experiment [2] was under 1 nM. Besides, the GI50 in experiment [3] (SW620 cells, 6 days) fell in the range of 10 to 100 nM.
